Measured values taken from patent US4046904A, “Novel penicillin, and its preparation and use” (Sumitomo Chemical Company, Limited, priority 1975, dated 1977).
Converted amounts (≈) assume the structure as drawn. Where two headings read alike, the source gives them in different places.

Key:
[1] = Serum level in mice after subcutaneous administration (Table 7); assay type: in vivo, ICR-SLC strain mice; conditions: mouse, sc, subcutaneous 50 mg/kg, sodium salt
Description: The peak serum concentrations of Compound (I) and Compound (C) in ICR strain mice following subcutaneous administration at 50 mg/kg are shown in Table 7.
Note: Compound (I) and Compound (C) were subjected to the test in the form of the sodium salt. For the test, three male ICR-SLC strain mice were used. The bioassay was carried out according to the disc method using Bacillus subtilis.

[2] = system: Pseudomonas aeruginosa; test: MIC (Table 3); assay type: cell-based; conditions: Pseudomonas aeruginosa strain 104; sodium salt
Text: (§1) The minimum inhibitory concentrations obtained with Compound (I) and Compound (C) against the following organisms representing 6 genera are shown in Table 3.
(§2) Note: Compound (I) and Compound (C) were subjected to the test in the form of the sodium salt.

[3] = system: Proteus vulgaris; test: MIC (Table 3); assay type: cell-based; conditions: Proteus vulgaris strain HX19; sodium salt
Text: as §1, §2

[4] = system: Staphylococcus aureus; test: MIC (Table 3); assay type: cell-based
Text: as §1, §2

[5] = system: Escherichia coli; test: MIC (Table 3); assay type: cell-based
Text: as §1, §2

[6] = system: Proteus mirabilis; test: MIC (Table 3); assay type: cell-based
Text: as §1, §2

[7] = system: Klebsiella pneumoniae; test: MIC (Table 3); assay type: cell-based; conditions: Klebsiella pneumoniae strain PCI602; sodium salt
Text: as §1, §2

[8] = pain when administered parenterally; assay type: in vivo; conditions: relative to said penicillins
[9] = Protein-binding rate in human serum (Table 6); assay type: in vitro ADME; conditions: for fraction unbound: human, serum, sodium salt
Text: The following data are related to the pharmacokinetic profiles of Compound (I) compared with Compound (C).
as §2

[10] = system: Pseudomonas aeruginosa; test: Intraperitoneal infection in mice, median protective dose (Table 2); assay type: in vivo; conditions: subcutaneous; for ED50: sc, 1 and 4 hours after infection, sodium salt, read-out: PD50
Description: (§3) Note: Compound (I), Compound (A) and Compound (B) were subjected to the test in the form of the sodium salt. For each test, eight male ICR-SLC strain mice were used at each dose level. MIC was determined by the nutrient broth dilution method. In determination of PD50, subcutaneous treatment was carried out twice, i.e. 1 and 4 hours after infection.

[11] = system: Escherichia coli; test: as above; assay type: in vivo; conditions: sc, subcutaneous, 1 and 4 hours after infection, sodium salt, read-out: PD50
Description: as §3

[12] = system: Klebsiella pneumoniae; test: as above; assay type: in vivo; conditions: subcutaneous; for ED50: sc, 1 and 4 hours after infection, sodium salt, read-out: PD50
Description: as §3

[13] = system: Pseudomonas aeruginosa; test: Intraperitoneal infection in mice, median protective dose (Table 5); assay type: in vivo
Description: (§4) The relative activities of Compound (I) and Compound (C) against various intraperitioneal infections in mice evaluated by the minimum inhibitory concentrations and the means median protective doses (subcutaneously administered) are shown in Table 5.
(§5) Note: Compound (I) and Compound (C) were subjected to the test in the form of the sodium salt. For each test, five male ICR-SLC strain mice were used at each dose level. MIC was determined by the nutrient broth dilution method. In determination of PD50, subsutaneous treatment was carried out three times, i.e. 1, 3 and 5 hours after infection.

[14] = system: Streptococcus faecalis; test: as above; assay type: in vivo
Description: as §4, §5

[15] = system: Staphylococcus aureus; test: as above; assay type: in vivo
Description: as §4, §5

[16] = system: Klebsiella pneumoniae; test: as above; assay type: in vivo
Description: as §4, §5

[17] = system: Serratia; test: Median MIC, clinical isolates, agar-plate dilution (Table 1); assay type: cell-based
Description: (§6) Note: Compound (I) and Compound (A) were subjected to the test in the form of the sodium salt. The minimum inhibitory concentration (MIC) was determined using the agar-plate dilution method recommended by Japan Society of Chemotherapy.

[18] = system: Enterobacter aerogenes; test: as above; assay type: cell-based
Description: as §6

[19] = system: Staphylococcus aureus; test: as above; assay type: cell-based; conditions: 37 clinical isolates, sodium salt, read-out: Median minimum inhibitory concentration
Description: as §6

[20] = system: Escherichia; test: as above; assay type: cell-based; conditions: read-out: Median minimum inhibitory concentration
Description: as §6

[21] = system: Klebsiella pneumoniae; test: as above; assay type: cell-based
Description: as §6

[22] = system: Proteus morganii; test: as above; assay type: cell-based
Description: as §6

[23] = solubility in pharmaceutical diluents; assay type: physicochemical; conditions: e.g. water; relative to said penicillins
[24] = Urinary excretion rate in rats after intramuscular administration (Table 8); assay type: in vivo, Wistar-HLA strain rats; conditions: rat, urine, im, 20 mg/kg, male rats, intramuscular 20 mg/kg, sodium salt
Description: The urinary excretion rates of Compound (I) and Compound (C) following an intramuscular administration of 20 mg/kg in male Wistar-HLA strain rats are shown in Table 8.
as §2

[25] = system: Pseudomonas aeruginosa; test: MIC, nutrient broth dilution (Table 5); assay type: cell-based; conditions: Pseudomonas aeruginosa strain TS, sodium salt
Description: as §4, §5

[26] = system: Streptococcus faecalis; test: MIC, nutrient broth dilution (Table 5); assay type: cell-based; conditions: Enterococcus faecalis, Streptococcus faecalis strain F10, sodium salt
Description: as §4, §5

[27] = system: Staphylococcus aureus; test: MIC, nutrient broth dilution (Table 5); assay type: cell-based; conditions: Staphylococcus aureus strain A24, sodium salt
Description: as §4, §5

[28] = system: Klebsiella pneumoniae; test: MIC, nutrient broth dilution (Table 5); assay type: cell-based; conditions: Klebsiella pneumoniae strain No. 1, sodium salt
Description: as §4, §5

Q: For `CC1(C)S[C@@H]2[C@H](NC(=O)[C@H](NC(=O)c3ccnnc3O)c3ccc(O)cc3)C(=O)N2[C@H]1C(=O)O` [Compound (I), 6-[D-2-(3-hydroxypyridazine-4-carbonamido)-2-(p-hydroxyphenyl)acetamido]penicillanic acid], which concentration at 0.5 h ([1]; 1/2 hr.) is on record?
A: Its concentration at 0.5 h is 35000 ng/mL.

Q: What about the concentration at 0.25 h ([1]; 1/4 hr.) of the same molecule?
A: The concentration at 0.25 h was 69000 ng/mL.

Q: What about the concentration at 1 h ([1]; 1 hr.) of the same molecule?
A: The concentration at 1 h was 14000 ng/mL.

Q: And the concentration at 2 h ([1]; 2 hr.)?
A: The concentration at 2 h was 3000 ng/mL.

Q: What about the MIC [2] of the same molecule?
A: The MIC was 1.56 µg/mL.

Q: What about the MIC [3] of the same molecule?
A: The MIC was 0.025 µg/mL.

Q: And the “antibacterial activity relative to Compound (C)” value ([4]; Staphylococcus aureus)?
A: Its value is “superior”.

Q: What about the MIC ([4]; Staphylococcus aureus strain 209P, sodium salt) of the same molecule?
A: The MIC was 0.39 µg/mL.

Q: And the “antibacterial activity relative to Compound (C)” value ([5]; Escherichia coli)?
A: The value was “inferior”.

Q: And the MIC ([5]; Escherichia coli strain NIHJ, sodium salt)?
A: The MIC was 6.25 µg/mL.

Q: What about the “antibacterial activity relative to Compound (C)” value ([6]; Proteus mirabilis) of the same molecule?
A: The value was “inferior”.

Q: And the MIC ([6]; Proteus mirabilis strain GN2425, sodium salt)?
A: Its MIC is 6.25 µg/mL.

Q: What about the MIC [7] of the same molecule?
A: Its MIC is 12.5 µg/mL.

Q: What about the “pain when administered parenterally” value [8] of the same molecule?
A: The value was “weaker pain”.

Q: What about the “protein-binding rate relative to Compound (C)” value ([9]; human serum) of the same molecule?
A: Its value is “lower protein-binding rate”.

Q: What about the fraction unbound ([9]; Ultracentrifugation method) of the same molecule?
A: Its fraction unbound is 0.4.

Q: What about the fraction unbound ([9]; Ultrafiltration method) of the same molecule?
A: The fraction unbound was 0.42.

Q: What about the “PD50 relative to Compound (A) and Compound (B)” value ([10]; mice) of the same molecule?
A: The value was “markedly superior”.

Q: And the ED50 ([10]; P. aeruginosa strain NC-5, male ICR-SLC mice)?
A: The ED50 was 22 mg/kg.

Q: And the ED50 ([10]; P. aeruginosa strain T, male ICR-SLC mice)?
A: Its ED50 is 35 mg/kg.

Q: And the ED50 ([11]; E. coli strain NIHJ, male ICR-SLC mice)?
A: Its ED50 is 3.2 mg/kg.

Q: And the ED50 ([11]; E. coli strain No. 37, male ICR-SLC mice)?
A: Its ED50 is 31 mg/kg.

Q: And the “PD50 relative to Compound (A) and Compound (B)” value ([12]; mice)?
A: Its value is “markedly superior”.

Q: And the ED50 ([12]; K. pneumoniae strain No. 1, male ICR-SLC mice)?
A: The ED50 was 25 mg/kg.

Q: What about the ED50 ([12]; K. pneumoniae strain No. 6, male ICR-SLC mice) of the same molecule?
A: The ED50 was 36 mg/kg.

Q: What about the ED50 ([12]; K. pneumoniae strain No. 20, male ICR-SLC mice) of the same molecule?
A: Its ED50 is 31 mg/kg.

Q: What about the “PD50 relative to Compound (C)” value ([13]; mice, subcutaneous) of the same molecule?
A: The value was “inferior”.

Q: And the ED50 ([13]; sc, P. aeruginosa strain TS, male ICR-SLC mice, subcutaneous, 1, 3 and 5 hours after infection, sodium salt, read-out: PD50)?
A: The ED50 was 22 mg/kg.

Q: And the ED50 ([14]; Enterococcus faecalis, sc, S. faecalis strain F10, male ICR-SLC mice, subcutaneous, 1, 3 and 5 hours after infection, sodium salt, read-out: PD50)?
A: The ED50 was 1.1 mg/kg.

Q: And the “PD50 relative to Compound (C)” value ([14]; Streptococcus faecalis, mice, subcutaneous)?
A: Its value is “markedly superior”.

Q: What about the “PD50 relative to Compound (C)” value ([15]; mice, subcutaneous) of the same molecule?
A: Its value is “markedly superior”.

Q: What about the ED50 ([15]; sc, S. aureus strain A24, male ICR-SLC mice, subcutaneous, 1, 3 and 5 hours after infection, sodium salt, read-out: PD50) of the same molecule?
A: The ED50 was 2 mg/kg.

Q: What about the “PD50 relative to Compound (C)” value ([16]; mice, subcutaneous) of the same molecule?
A: Its value is “approximately equal”.

Q: What about the ED50 ([16]; sc, K. pneumoniae strain No. 1, male ICR-SLC mice, subcutaneous, 1, 3 and 5 hours after infection, sodium salt, read-out: PD50) of the same molecule?
A: The ED50 was 16 mg/kg.

Q: And the MIC50 ([17]; 6 clinical isolates, sodium salt, read-out: Median minimum inhibitory concentration)?
A: The MIC50 was 31 µg/mL.

Q: What about the “antibacterial activity relative to Compound (A)” value ([17]; clinical isolates) of the same molecule?
A: Its value is “superior”.

Q: And the MIC50 ([18]; Klebsiella aerogenes, 8 clinical isolates, sodium salt, read-out: Median minimum inhibitory concentration)?
A: Its MIC50 is 25 µg/mL.

Q: What about the “antibacterial activity relative to Compound (A)” value ([18]; clinical isolates) of the same molecule?
A: Its value is “superior”.

Q: What about the MIC50 [19] of the same molecule?
A: Its MIC50 is 13 µg/mL.

Q: And the MIC50 [20]?
A: Its MIC50 is 12 µg/mL (≈ 24.6 µM).

Q: What about the MIC50 ([21]; 26 clinical isolates, sodium salt, read-out: Median minimum inhibitory concentration) of the same molecule?
A: The MIC50 was 21 µg/mL.

Q: And the “antibacterial activity relative to Compound (A)” value ([21]; clinical isolates)?
A: The value was “superior”.

Q: What about the MIC50 ([22]; Morganella morganii, 14 clinical isolates, sodium salt, read-out: Median minimum inhibitory concentration) of the same molecule?
A: The MIC50 was 4.4 µg/mL.

Q: What about the “antibacterial activity relative to Compound (A)” value ([22]; clinical isolates) of the same molecule?
A: Its value is “superior”.

Q: What about the “solubility in pharmaceutical diluents” value [23] of the same molecule?
A: The value was “higher solubility”.

Q: What about the dose excreted at 6 h ([24]; 0-6 hr.) of the same molecule?
A: Its dose excreted at 6 h is 54%.

Q: What about the dose excreted at 24 h ([24]; 0-24 hr.) of the same molecule?
A: The dose excreted at 24 h was 55%.

Q: And the dose excreted at 24 h ([24]; 6-24 hr.)?
A: Its dose excreted at 24 h is 1%.

Q: What about the MIC [25] of the same molecule?
A: The MIC was 6.25 µg/mL.

Q: What about the MIC [26] of the same molecule?
A: Its MIC is 1.56 µg/mL.

Q: And the MIC [27]?
A: Its MIC is 0.39 µg/mL.

Q: And the MIC [28]?
A: Its MIC is 6.25 µg/mL.
